From patent US11149016B2, “S-substituted-2-amino-3-mercaptopropionate derivative, preparation method and application thereof” (JIANGSU TASLY DIYI PHARMACEUTICAL CO., LTD., priority 2016, dated 2021)

Tested on: mice with memory disorders caused by scopolamine
Test: Passive avoidance (darkroom) test in mice with scopolamine-injured memory
Format: in vivo, ICR mice
Details: for Activity compared with SPRC (in words) / Effect on error times of mice with memory impairment entering the darkroom (in words) / Effect on latency of mice with memory impairment entering the darkroom (in words): passive avoidance test, scopolamine model; for Latency (s) of entering the darkroom / Error times (number of times entering the darkroom within 3 minutes): intragastric, 7 days, scopolamine 3 mg/kg 20 minutes before testing, x ± s, n = 10
Excerpt: Memory functions of mice are injured by scopolamine, and effects of improvement of tested materials on the memory functions of the mice are observed.
Animals: ICR mice, male, 20-22 g, purchased from Institute for Experimental Animals in Chinese Academy of Medical Sciences, certification number: SCXK (JING) 2014-0004.
Agent: scopolamine (J&K Company), donepezil reagent (TCI Company).
Tested materials: 4 tested materials and a positive-drug donepezil are provided by Tasly Group. Dosage of administration: administered by tested materials according to 80 mg/kg weight, administered by donepezil according to 5 mg/kg weight, an administration volume of 2 ml.
purchasing 60 mice, and enabling the mice to adapt to an environment for three days; dividing the mice into 6 groups randomly, wherein a blank control group includes 10 mice, the rest mice are contained in administration groups, and each administration group includes 10 mice; respectively administering the tested materials and positive drug, performing intragastric administration for 7 days, putting the mice into a darkroom to adapt to the environment on the fifth day during administration, electrifying the darkroom on the sixth day during administration, training the mice to elude the darkroom, and training each mouse once; testing on the seventh day, administering with scopolamine by 3 mg/kg within 20 minutes before testing, and recording time of the mice entering the darkroom for the first time and a number of times of the mice entering the darkroom within 3 minutes during testing.
Passive avoidance response is a common method used commonly to detect learning and memory functions of small animals. With respect to a passive avoidance test, by means of a feature that rodents like darkness and keep in a dark place, the rodents are stimulated in the dark to escape to a bright place to acquire memory, and the passive avoidance test is a type of passive avoidance response experiments. The passive avoidance test has a short experimental period and is applicable to rapid drug screening. The scopolamine may inhibit release of acetyl choline, so as to form learning and memory disorders. The passive avoidance test is a stable learning and memory disorder modeling method and has excellent model reproducibility.

[1] = tested materials 80 mg/kg, time of first entry into darkroom
[2] = positive drug donepezil 5 mg/kg

Row | Structure (SMILES) | Activity compared with SPRC (in words) | Effect on error times of mice with memory impairment entering the darkroom (in words) | Effect on latency of mice with memory impairment entering the darkroom (in words) | Latency (s) of entering the darkroom [1] [s] | Error times (number of times entering the darkroom within 3 minutes) (tested materials 80 mg/kg) | Error times (number of times entering the darkroom within 3 minutes) [2] | Latency (s) of entering the darkroom [2] [s]
1 | C#CCSCC(N)C(=O)OCCCC[N+](=O)[O-] (centres unmarked) [Vf, 2-amino-3-propinylmercaptopropionic acid-4-nitro-1-butanol ester] | obviously better than the activity of the SPRC | trend of decreasing the error times | trend of increasing the latency | 60.2 ± 61.3 | 2.4 ± 2.3 |  | 
2 | C#CCSC[C@H](N)C(=O)O [SPRC, S-propargyl-cysteine, reference compound] |  |  |  | 50.5 ± 69.7 | 3.8 ± 4.0 |  | 
3 | COc1cc2c(cc1OC)C(=O)C(CC1CCN(Cc3ccccc3)CC1)C2 (centres unmarked) [Donepezil, donepezil, reference compound] |  |  |  |  |  | 6.8 ± 5.4 | 49.5 ± 71.6
4 | C#CCSCC(N)C(=O)Oc1ccc(C=O)cc1 (centres unmarked) [Vb, 2-amino-3-propinylmercaptopropionic acid-4-formyl phenol ester] |  |  |  | 53.2 ± 59.4 | 4.1 ± 3.7 |  | 
5 | C#CCSCC(N)C(=O)OCc1ccc(OC(=O)C(N)CSCC#C)cc1 (centres unmarked) [Vd, bis(2-amino-3-propinylmercaptopropionic acid)-4-benzyl alcohol-1-phenol diester] | obviously better than the activity of the SPRC | trend of decreasing the error times | trend of increasing the latency | 63.6 ± 69.5 | 2.6 ± 3.3 |  | 
6 | C#CCSCC(N)C(=O)Oc1ccc(-c2cc(=S)ss2)cc1 (centres unmarked) [Va, 2-amino-3-propinylmercaptopropionic acid-4-(3-thio-3H-1,2-dithio-5-alkenyl) phenol ester] |  |  |  | 55.8 ± 61.3 | 4.7 ± 4.6 |  | 
7 | C#CCSCC(N)C(=O)Oc1ccc(CO)cc1 (centres unmarked) [Vc, 2-amino-3-propinylmercaptopropionic acid-4-benzyl alcohol phenol ester] | obviously better than the activity of the SPRC | trend of decreasing the error times | trend of increasing the latency | 66.8 ± 57.1 | 2.4 ± 1.3 |  | 
